In PubChem BioAssay (NCI):
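Protocol summary: plate cells (96-well), add compound at 5 concentrations, incubate 48 h, interpolate endpoints linearly. GI50: concentration for 50% inhibition of growth. At the TGI there is no net growth.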

Key:
Test in all cases: NCI tumour cell line growth inhibition, 48 h
T-47D breast = system: T-47D breast
NCI-H23 lung = system: NCI-H23 lung
ACHN renal = system: ACHN renal
COLO 205 colon = system: COLO 205 colon
RXF 393 renal = system: RXF 393 renal
A549 NSCLC = system: A549 NSCLC
HCT-15 colon = system: HCT-15 colon
SNB-19 CNS = system: SNB-19 CNS
RPMI-8226 leukemia = system: RPMI-8226 leukemia
HCT-116 colon = system: HCT-116 colon

| SMILES | GI50 (T-47D breast) [µM] | TGI (T-47D breast) [µM] | GI50 (NCI-H23 lung) [µM] | TGI (NCI-H23 lung) [µM] | GI50 (ACHN renal) [µM] | TGI (ACHN renal) [µM] | GI50 (COLO 205 colon) [µM] | TGI (COLO 205 colon) [µM] | GI50 (RXF 393 renal) [µM] | TGI (RXF 393 renal) [µM] | GI50 (A549 NSCLC) [µM] | TGI (A549 NSCLC) [µM] | GI50 (HCT-15 colon) [µM] | TGI (HCT-15 colon) [µM] | GI50 (SNB-19 CNS) [µM] | TGI (SNB-19 CNS) [µM] | GI50 (RPMI-8226 leukemia) [µM] | TGI (RPMI-8226 leukemia) [µM] | GI50 (HCT-116 colon) [µM] | TGI (HCT-116 colon) [µM] |
| --- | --- | --- | --- | --- | --- | --- | --- | --- | --- | --- | --- | --- | --- | --- | --- | --- | --- | --- | --- | --- |
| COC(=O)c1cc(-c2cc(OC)c(OC)c(OC)c2)[nH]c1N/N=C/c1c(Cl)cccc1Cl | 1.92 | 6.29 | 1.25 | 7.78 | 0.963 | 9.17 | 4.49 | > 68 | 7.45 | 31.4 | 4.97 | 23.3 | 16 | > 100 | 3.37 | 21.4 | 1.94 | > 34.4 | 1.11 | > 33 |
| COc1ccc(C(=O)COc2cccc(/C=C3\CSc4ccccc4C3=O)c2)cc1 | 2.33 | 5.79 | 2.14 | 4.78 | 1.93 | 3.86 | 2.93 | 6.95 | 2.42 | 5.39 | 9.04 | 39.5 | 2.08 | 6.07 | 2.77 | 8.73 | 0.342 | 3.69 | 1.35 | 2.78 |
| COc1ccc(-c2nnc(SCC(=O)Nc3ccc(/C(C)=N\O)cc3)n2-c2ccccc2)cc1OC | 9.45 | > 100 | 12.9 | > 100 | 8.08 | > 100 | > 100 | > 100 | 2.56 | 7.11 | 9.73 | > 100 | > 100 | > 100 | 6.43 | > 100 | > 100 | > 100 | 11.3 | > 100 |
| N=c1c2c(-c3ccccc3)c(-c3ccccc3)n(Cc3ccccc3)c2ncn1CCCO | 3.13 | 18.1 | 4.32 | 24.3 | 0.457 | 14.3 | 0.681 | 2.02 | 0.443 | 2.5 | 0.561 | 15.5 | 0.696 | 15.5 | 2.21 | 21.3 | 2.86 | 16 | 0.406 | 4.84 |
| Nc1ncnc2c1ncn2CC(O)C(=O)O (stereo unspecified) | – | > 100 | – | > 100 | – | > 100 | – | > 100 | – | > 100 | – | > 100 | – | > 100 | – | > 100 | – | > 100 | – | > 100 |
| N#Cc1cccc(C(=O)Nc2cccc(NC(=O)c3cccc(C#N)c3)c2)c1 | > 100 | > 100 | 89 | > 100 | > 100 | > 100 | > 100 | > 100 | – | – | 74.3 | > 100 | 73.9 | > 100 | > 100 | > 100 | 52 | > 100 | 78.1 | > 100 |
| CC1=CCC(OC(=O)C(C)(C)CCC(O)(C(=O)OC2(C(C)C)CCC3(C)OC3C2)C(C)C)(C(C)C)CC1 (stereo unspecified) | 0.152 | 1.24 | 0.113 | 0.301 | 0.107 | 0.311 | 0.496 | 1.59 | 0.587 | 1.25 | 0.279 | 1.16 | 0.148 | 0.688 | 1.14 | 5.43 | 0.234 | 8.85 | 0.113 | 0.381 |
| O=C1C=C[C@@]23C[C@@H](Nc4c(O)c5c6c(c42)=NCCC=6C=N5)SC3=C1 | 2.96 | 7.47 | 2.52 | 7.01 | 3.35 | 9.16 | – | 2.92 | 2.51 | 8.81 | 8.62 | 24.4 | 2.85 | 7.94 | – | 30.6 | 3.13 | > 34.6 | – | 4.03 |
| CCCCCCCCC(=O)N(C)C1C2CN3CCC(O2)C13 (stereo unspecified) | – | – | – | > 100 | – | > 100 | – | > 100 | – | > 100 | – | > 100 | – | > 100 | – | > 100 | – | > 100 | – | > 100 |
| O=c1c2cc(Br)ccc2nc(-c2ccccc2Cl)n1NCC1(O)OCC(O)C(O)C1O (stereo unspecified) | – | – | – | > 100 | – | > 100 | – | > 100 | – | > 100 | – | > 100 | – | > 100 | – | > 100 | – | > 100 | – | > 100 |
| NC(=NC1CCCCCCC1)c1ccc(N2CCN(c3ccc(C(N)=NC4CCCCCCC4)cc3)CC2)cc1 | 25.8 | > 100 | 6.8 | 45.8 | 22.7 | > 100 | 13.3 | 39.3 | – | – | 4.25 | > 100 | 31.8 | > 100 | 13.5 | 27.6 | 25.8 | > 100 | – | – |
| CC(=O)NCCSC(=O)c1ccccc1 | – | – | – | 0.191 | – | 0.0971 | – | 0.516 | – | 0.958 | – | 2.06 | – | 1.04 | – | 15.2 | – | 2.26 | – | 0.275 |
| COC(=O)C1C2C=CC(C2)C1(C(=O)OC)S(=O)CC12CCC(CC1O)C2(C)C (stereo unspecified) | – | – | – | > 100 | – | > 100 | – | > 100 | – | > 100 | – | > 100 | – | 37.7 | – | > 100 | – | > 100 | – | > 100 |
| COc1ccc2c(c1)c(-c1nc(-c3c[nH]c4ncccc34)cs1)cn2CCCCN1CCOCC1 | 2.12 | 6.5 | 2.14 | 5.08 | 1.79 | 3.4 | 1.85 | 3.58 | 1.73 | 3.38 | 2.23 | 4.28 | 1.96 | 4.14 | – | – | 1.99 | 4.72 | 1.78 | 3.37 |
| NNC(=O)CCC(=O)Nc1cc(Cl)c(Cl)cc1Cl | – | – | – | > 100 | – | > 100 | – | > 100 | – | > 100 | – | > 100 | – | > 100 | – | > 100 | – | > 100 | – | > 100 |
| N#Cc1c(N)nc(N2CCOCC2)c(C#N)c1-c1ccc(Cl)cc1 | 16.1 | > 100 | 73.5 | > 100 | – | – | 48.5 | > 100 | 0.475 | 45.1 | 42.6 | > 100 | 26.9 | > 100 | 28.1 | > 100 | 26.5 | > 100 | 65.1 | > 100 |
| CCc1ccccc1N1CCN(C(=O)c2cc(OC)c(OC)c(OC)c2)CC1 | – | 67.9 | – | 23.3 | – | 66.4 | – | 0.108 | – | – | – | 72.4 | – | > 23.6 | – | > 56 | – | 23.1 | – | 16.5 |
| COc1cc2c3c(n(CCCNCC(OC)OC)c(=O)c2cc1OC)-c1cc2c(cc1C3=O)OCO2 | – | – | 1.84 | 29.9 | 5.34 | > 37.4 | 14 | > 61.1 | 3.84 | 21.6 | 11.2 | 37.9 | 17.3 | > 100 | 10.2 | > 100 | < 0.01 | 0.197 | 0.0172 | 1.31 |
| CCC(CC)n1cc(C(=O)NC(=O)NCCCCCOC(=O)CCCCCCCCCCC(=O)OCCCCCNC(=O)NC(=O)c2cn(C(CC)CC)c(=O)[nH]c2=O)c(=O)[nH]c1=O | – | – | – | > 100 | – | > 100 | – | > 100 | – | > 100 | – | > 100 | – | > 100 | – | > 100 | – | > 100 | – | > 100 |
| Cc1cccc(NC(=O)c2cc3cc(N=Nc4ccccc4Cl)ccc3oc2=O)c1 | – | – | – | 59.5 | – | > 100 | – | > 100 | – | 83.2 | – | > 100 | – | > 100 | – | > 100 | – | > 100 | – | 57.3 |
| O=C1OC(CC(=O)c2ccc(Cl)cc2Cl)C(Cl)=C1Cl (stereo unspecified) | – | – | – | > 65.7 | – | > 56.9 | – | 52.6 | – | 36.3 | – | > 100 | – | > 70.6 | – | > 76.6 | – | > 73 | – | 32.9 |
| C=CCNCCCN1C(=O)c2ccc3c4c(ccc(c24)C1=O)C(=O)N(CCCNCC=C)C3=O | – | – | 0.392 | 1.42 | 0.268 | 4.38 | 0.172 | 0.335 | 0.344 | 1.52 | 0.226 | 0.605 | 0.413 | 2.38 | 0.592 | 1.96 | 0.385 | 3.55 | 0.279 | 3.39 |
| COc1ccc(-c2cc(-c3ccccc3)nc(N3CCN(CCNc4ccnc5cc(Cl)ccc45)CC3)n2)cc1 | 1.55 | 3.73 | 1.9 | 5.23 | 3.8 | 14.4 | 1.17 | 2.66 | 0.842 | 2.27 | 1.9 | 4.39 | 1.4 | 3.14 | 3.19 | 13.2 | 1.65 | 4.57 | – | – |
| NC(=O)c1oc([N+](=O)[O-])c(-c2ccccc2)c1-c1ccccc1 | – | 50.3 | – | 35 | – | 82 | – | 42.1 | – | > 100 | – | 44.5 | – | 35.4 | – | > 100 | – | – | – | 36 |
